Data taken from patent US10913736B2 (UNIVERSITY OF WASHINGTON, priority 2014, dated 2021).
Several values for one entry are separate records, joined by “and”; a condition that tells them apart may be missing. Equal entries are not always repeated. Where two headings read alike, the source gives them in different places.

Experiments:
[1] = target: MetRS (T. brucei) (Trypanosoma brucei brucei, UniProt Q38C91); assay: MetRS (T. brucei) ATP depletion assay using Kinase-Glo; assay type: biochemical
[2] = test system: T. cruzi; assay: T. cruzi growth inhibition EC50; assay type: cell-based; details: Trypanosoma cruzi; read-out: C) T. cruzi EC50
[3] = target: MetRS (S. aureus) (Staphylococcus aureus, UniProt Q5HII6); assay: biochemical; details: ATP depletion, Kinase-Glo; read-out: H) MetRS (S. aureus) ATP depletion assay using Kinase-Glo with modified cpd dilution method, IC50
[4] = test system: T. brucei; assay: Growth inhibition assay of T. brucei cell cultures (Alamar Blue, 48 h); assay type: cell-based
[5] = Trypanosoma brucei; read-out: B) T. brucei EC50

MetRS (T. brucei), sequence (Q38C91 entry or part of it): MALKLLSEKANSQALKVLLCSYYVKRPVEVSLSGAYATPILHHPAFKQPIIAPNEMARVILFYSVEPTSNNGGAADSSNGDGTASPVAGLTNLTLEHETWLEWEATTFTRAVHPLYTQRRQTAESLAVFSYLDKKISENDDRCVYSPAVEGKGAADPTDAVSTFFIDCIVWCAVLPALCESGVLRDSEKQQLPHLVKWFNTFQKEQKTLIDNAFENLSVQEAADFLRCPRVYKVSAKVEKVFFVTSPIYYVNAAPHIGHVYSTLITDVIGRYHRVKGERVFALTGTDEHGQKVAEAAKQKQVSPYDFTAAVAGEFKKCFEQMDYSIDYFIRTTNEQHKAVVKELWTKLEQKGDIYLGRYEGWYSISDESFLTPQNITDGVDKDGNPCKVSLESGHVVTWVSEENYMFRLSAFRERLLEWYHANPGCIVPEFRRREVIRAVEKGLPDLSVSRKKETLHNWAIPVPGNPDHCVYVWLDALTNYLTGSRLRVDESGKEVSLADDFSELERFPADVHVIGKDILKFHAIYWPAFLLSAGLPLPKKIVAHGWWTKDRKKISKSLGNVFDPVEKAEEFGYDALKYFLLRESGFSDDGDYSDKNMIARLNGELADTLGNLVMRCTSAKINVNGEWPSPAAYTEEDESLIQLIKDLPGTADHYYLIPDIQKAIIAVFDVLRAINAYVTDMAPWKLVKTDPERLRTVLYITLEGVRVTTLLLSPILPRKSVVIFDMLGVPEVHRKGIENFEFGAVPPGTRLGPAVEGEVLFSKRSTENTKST
MetRS (S. aureus), sequence (Q5HII6 whole entry): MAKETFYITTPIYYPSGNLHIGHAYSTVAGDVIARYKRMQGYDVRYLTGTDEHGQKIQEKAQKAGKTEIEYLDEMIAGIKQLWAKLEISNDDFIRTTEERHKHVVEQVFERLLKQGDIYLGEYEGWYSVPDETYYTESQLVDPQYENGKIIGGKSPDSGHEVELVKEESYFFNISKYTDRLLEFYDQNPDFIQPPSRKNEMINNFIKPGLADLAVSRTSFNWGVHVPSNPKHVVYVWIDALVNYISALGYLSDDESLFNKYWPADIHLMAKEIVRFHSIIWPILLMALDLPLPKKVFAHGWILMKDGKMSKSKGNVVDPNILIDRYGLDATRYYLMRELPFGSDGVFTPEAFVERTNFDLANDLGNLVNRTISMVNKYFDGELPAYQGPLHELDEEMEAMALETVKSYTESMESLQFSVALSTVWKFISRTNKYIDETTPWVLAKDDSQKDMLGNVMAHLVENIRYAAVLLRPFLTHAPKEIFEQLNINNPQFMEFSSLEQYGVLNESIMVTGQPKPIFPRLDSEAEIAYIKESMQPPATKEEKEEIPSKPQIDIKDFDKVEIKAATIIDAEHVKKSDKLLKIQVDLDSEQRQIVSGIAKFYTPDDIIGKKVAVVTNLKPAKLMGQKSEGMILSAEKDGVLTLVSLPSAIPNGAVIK

SMILES	IC50 [1]	EC50 [2] [nM]	IC50 [3] [nM]	EC50 [4, 5] [nM]	EC50 ([4]; read-out: B) T. brucei EC50)
CN(CCN(CCN(C)c1nc2nc(F)ccc2[nH]1)[C@@H]1CCNc2c(Cl)cc(Cl)cc21)c1nc2nc(F)ccc2[nH]1 [Compound 1939, (R)—N1-(6,8-dichloro-1,2,3,4-tetrahydroquinolin-4-yl)-N2-(5-fluoro-1H-imidazo[4,5-b]pyridin-2-yl)-N1-(2-((5-fluoro-1H-imidazo[4,5-b]pyridin-2-yl)(methyl)amino)ethyl)-N2-methylethane-1,2-diamine]	73 nM	176	271		
Fc1ccc2[nH]c(N3CCCC(NCc4cc(Cl)cc(Cl)c4)C3)nc2n1 (centres unmarked) [Compound 1886, N-(3,5-dichlorobenzyl)-1-(5-fluoro-1H-imidazo[4,5-b]pyridin-2-yl) piperidin-3-amine]	14 nM	5160	505	299	
CCN(CCNCc1cc(Cl)cc(Cl)c1)c1nc2nc(Cl)ccc2[nH]1 [Compound 1949, 5-chloro-N-(2-{[(3,5-dichlorophenyl)methyl]amino}ethyl)-N-ethyl-3H-imidazo[4,5-b]pyridin-2-amine]	18 nM	1310	606	79.9	85.5 nM
Clc1cc(Cl)cc(CNC2CCCN(c3nc4nc(Cl)ccc4[nH]3)C2)c1 (centres unmarked) [Compound 1811, 1-(5-chloro-1H-imidazo[4,5-b]pyridin-2-yl)-N-(3,5-dichlorobenzyl) piperidin-3-amine]	8 nM	2510	709	81.8	
CC(Cc1nc2ccc(Cl)cc2[nH]1)NCc1cc(Cl)cc(Cl)c1 (centres unmarked) [Compound 1794, [1-(5-chloro-1H-1,3-benzodiazol-2-yl)propan-2-yl][(3,5-dichlorophenyl)methyl]amine]	31 nM and 17 nM and 72 nM and 70 nM	5230	22600	1330	1870 nM and 1840 nM
COc1ccc(Oc2nc(NCc3nc4ccc(F)nc4[nH]3)nc(Oc3ccc(OC)cc3Cl)n2)c(Cl)c1 [Compound 1884, 4,6-bis(2-chloro-4-methoxyphenoxy)-N-({5-fluoro-3H-imidazo[4,5-b]pyridin-2-yl}methyl)-1,3,5-triazin-2-amine]	24 nM	773	122	55.9	
Clc1ccc2[nH]c([C@H]3CCCN(Cc4ccc(Cl)c(Cl)c4)C3)nc2n1 [Compound 1870, (S)-5-chloro-2-(1-(3,4-dichlorobenzyl)piperidin-3-yl)-1H-imidazo[4,5-b]pyridine]	54 nM	2610	837	458	
Clc1cc(Cl)c2c(c1)C(N[C@H]1CCCN(c3nc4nc(Cl)ccc4[nH]3)C1)CCN2 (stereo partly drawn) [Compound 1899, 6,8-dichloro-N—((S)-1-(5-chloro-1H-imidazo[4,5-b]pyridin-2-yl)piperidin-3-yl)-1,2,3,4-tetrahydroquinolin-4-amine]	89 nM	260	323		
N#Cc1cc(Cl)cc(CN[C@H]2CCCN(c3nc4nc(Cl)ccc4[nH]3)C2)c1 [Compound 1992, (S)-3-chloro-5-(((1-(5-chloro-1H-imidazo[4,5-b]pyridin-2-yl)piperidin-3-yl)amino)methyl)benzonitrile]	14 nM	2130		111	
CC(=O)N(CCN(C)c1nc2nc(Cl)ccc2[nH]1)[C@@H]1CCNc2c(Cl)cc(Cl)cc21 [Compound 1938, N-[2-({5-chloro-3H-imidazo[4,5-b]pyridin-2-yl}(methyl)amino)ethyl]-N-[(4R)-6,8-dichloro-1,2,3,4-tetrahydroquinolin-4-yl]acetamide]	36 nM	266	1260		
O=C1N[C@@H](Cc2ccc(Cl)cc2Cl)C(=O)N1Cc1nc2ccccc2[nH]1 [Compound 1754, (S)-3-((1H-benzo[d]imidazol-2-yl)methyl)-5-(2,4-dichlorobenzyl)imidazolidine-2,4-dione]	> 10000 nM	> 5000		5890	
